Data on 108 molecules can be found in a melting point compilation (Tetko et al.).

For orientation: melting point means the temperature, or range, at which the solid turns liquid. `O=[N+]([O-])Nc1ccccc1` displayed a melting point of 47.3 °C. `CC(C=CC=C(C)C=CC1=C(C)CC(O)CC1(C)C)=CC=CC=C(C)C=CC=C(C)C=CC1=C(C)CC(O)CC1(C)C` (stereo not drawn) had a melting point of 216 °C.

The molecule `Cc1ccc(O[Si]23OCCN(CCO2)CCO3)cc1` registered a melting point of 188 °C. Next, `CN(C)C(CSS(=O)(=O)c1ccccc1)CSS(=O)(=O)c1ccccc1`: 83.5 °C. With `BrC(Br)(Br)c1ccc2ccccc2n1`, the melting point came to 128 °C.

`O=Cc1c(Cl)ccc(Cl)c1Cl` had a melting point of 86 to 89 °C. For the molecule `O=C(CCl)c1cc(C(=O)CCl)c([N+](=O)[O-])cc1[N+](=O)[O-]`, the melting point turned out to be 148 °C. As for `Sc1nc2cccnc2s1`, the melting point is 300 °C.

Consider `Nc1c(Br)cc(F)c(Cl)c1Br`, for which the melting point is 98 °C. On to `CC(C)CCOC(=O)c1cc([N+](=O)[O-])cc([N+](=O)[O-])c1`, for which the melting point was 61 °C. Take `CC[C@@]1(O)CC[C@]2(C)[C@H]3CC[C@]4(C)C(O)CC[C@H]4[C@@H]3CC[C@@]2(C)C1` (stereo partly drawn): the melting point fell in the range of 168 to 169 °C. Under `Cn1c(/C(C#N)=N/Nc2ccc(C(=O)O)cc2)nc2ccccc21` stands 200 °C; under `COc1ccc(-c2ccccc2)cc1NC(=O)C(F)(F)C(F)(F)C(F)(F)C(F)(F)C(F)(F)C(F)(F)C(F)(F)C(F)(F)F`, 118 °C. For the molecule `CC1=CCC2CC1C2(C)C` (racemic), the melting point is -55 °C. On to `OCCN1CCN(c2ncc(Cl)cc2C(F)(F)F)CC1`, for which the melting point was in the range of 58 to 59 °C. Consider `CC(=O)Nc1ccccc1N`, for which the melting point worked out at 135 °C.

With `CC(C)NC(=O)COC(=O)c1ccccc1`, the melting point was 130 °C. Next, `C/C(OCCc1ccc([N+](=O)[O-])cc1)=C(\C#N)c1ccccc1`: 138 °C; `C=COC(C)C`: -140 °C. Turning to `O=C(OC(=O)C(c1ccccc1)c1ccccc1)C(c1ccccc1)c1ccccc1`, the melting point came to 98 °C.

`O=C(c1ccco1)c1noc(-c2ccc(Cl)cc2)c1S(=O)(=O)c1ccccc1` yielded a melting point of 140 °C. With `COC(=O)c1c2c(c(C)c3c1C(C)C3=O)C(=O)C2` (stereo not drawn), the melting point was 150 °C. `O=C1Nc2ccccc2C=NC2CCCCC2N=Cc2ccccc2NC(=O)O1` (stereo not drawn) returned a melting point of 253 to 255 °C. Next, `CC1=C[C@@]2(C)O[C@@H](c3ccccc3)[C@@H]1C(C#N)(C#N)C2(C#N)C#N`: 170 to 171 °C. In the case of `O=C(Cl)C(=O)Cl`, the melting point is -12 °C. The molecule `CCCCC(=O)NC` had a melting point of -26 °C. The molecule `NC(=NO)c1ccc2ccccc2c1` yielded a melting point of 150 to 151 °C. As to `CCCc1c(C(=O)O)cnn1-c1ccc(Cl)cc1`, the melting point was 116 to 119 °C.

`CCOC(=O)c1sc(-c2ccccc2)nc1C` showed a melting point of 36 to 39 °C. Under `ICCCI` stands -20 °C; under `Cc1c(C)c(C)c2c(c1C)CC2`, 139 °C.

`O=C(CCC1=NC=NC1)NCCc1c[nH]cn1` displayed a melting point of 164 °C. `O=C(Oc1ccccc1)c1cccnc1` registered a melting point of 72 °C. For `O=c1cc(-c2ccc(O)c(O)c2)oc2ccccc12`, the melting point was 250 °C. Next, `O=C1NC(=O)c2cc([N+](=O)[O-])ccc21`: 206 °C; `Cn1c(=O)c(C2=NNC(=O)C2=NNc2ccc(I)cc2)c(O)c2ccccc21`: 262 °C; `COc1ccc(C(=O)/C(=N\Nc2cc(Cl)ccc2Cl)S(=O)(=O)c2ccccc2)cc1`: 115 °C.

As to `O=C(NC(Cc1cccs1)C(=O)O)OCC1c2ccccc2-c2ccccc21` (stereo not drawn), the melting point was found to be 169 °C. Under `CC1CCC(C(C)C)C(OC(=O)C(Cc2ccccc2)c2ccccc2)C1` (stereo not drawn) stands 101 °C; under `COc1cc(C(=O)O)c([N+](=O)[O-])cc1OC`, 195 to 197 °C; under `Cn1[nH]c([N+](=O)[O-])c2c(=O)ccnc1-2`, 223 °C.

Consider `Nc1cccc2c1C(=O)c1cccc(Cl)c1C2=O`, for which the melting point is 207 °C.

In turn, `Cc1ccc(C)c(N/N=C(/C#N)c2nc3ccccc3c(=O)[nH]2)c1` gave a melting point of 205 °C. With `CC(Nc1cc(C)ccn1)=C(C#N)C(=O)c1ccccc1`, the melting point was in the range of 102 to 103 °C.

Consider `CCOP(=S)(OCC)Oc1cc(C)nc(N(CC)CC)n1`, for which the melting point turned out to be 15 °C.

`CC(=O)c1ccsc1`: the melting point amounted to 60 °C. For the molecule `Nc1ccc(C=Cc2nc3ccccc3[nH]2)cc1`, the melting point amounted to 225 °C. As for `Cc1ccc2cc3c(ccc4ccccc43)cc2c1`, the melting point was 152 °C. In the case of `O=C(OCc1ccccc1)ON1C(=O)CCC1=O`, the melting point is 80 °C. `O=C1CCC(=O)CC1` gave a melting point of 78 °C. `COC(=O)CCc1cc(CCC(=O)OC)c([N+](=O)[O-])cc1[N+](=O)[O-]` yielded a melting point of 71 °C. Consider `COc1ccc(C2(C(=O)O)CC2)cc1`, for which the melting point is 127 to 132 °C. `O=C(N=C=S)c1cccc([N+](=O)[O-])c1` showed a melting point of 93 to 95 °C. As for `Cc1ccc(Nc2ccc(C)cc2)cc1`, the melting point was 79.8 °C. As to `N#Cc1ccc([N+](=O)[O-])cc1C(F)(F)F`, the melting point is 52 to 54 °C.

The molecule `CC1(C)OC(C(O)CO)C(C(O)CO)O1` (stereo not drawn) displayed a melting point of 87 °C.

The molecule `O=C(O)c1cc2cc([N+](=O)[O-])ccc2s1` showed a melting point of 238 to 241 °C. With `Nc1ccc(C(=O)O)cc1F`, the melting point was 215 °C.

`CN(C)CCN(C)C`: the melting point was -55 °C.

For the molecule `Cc1cc(C)c(CC(O)c2cc3ccccc3o2)c(C)c1` (stereo not drawn), the melting point lay in the range of 75 to 76 °C. `COc1ccc(O)c(F)c1F` returned a melting point of 105 °C. As to `COCc1c(C(=O)OC(C)C)ncc2[nH]c3ccc(OCc4ccccc4)cc3c12`, the melting point came out at 150 °C. `CCCCC(=O)N(Cc1ccc(-c2ccccc2-c2nnn[nH]2)cc1)C(C(=O)O)C(C)C` (stereo not drawn) gave a melting point of 116 °C.

For `CCO[Si](Cl)(OCC)OCC`, the melting point is -51 °C.

Consider `Cc1nc(-c2ccc(C(=O)O)cc2)cs1`, for which the melting point is 263 to 268 °C. Molecule `ClCC(Cl)C(Cl)=C(Cl)C(Cl)CCl` (stereo not drawn) returned a melting point of 58.5 °C. As to `NC(CS(=O)(=O)c1ccc(Cl)cc1)=NO`, the melting point lay within 202 to 205 °C. Under `COc1ccc(NC(=S)NN=Cc2c(-c3ccc(Cl)cc3)[nH]c3ccccc23)cc1` stands 230 to 232 °C; under `NNc1ncc(C(=O)OCc2ccc(Cl)cc2)c(C(F)(F)F)n1`, 111 to 113 °C; under `CC1CCC2(C)C3=C(C(=O)C4(CC4C)C(O)C3=O)C(O)C(O)C2C1C` (stereo not drawn), 177 to 178 °C.

`O=Cc1c([N+](=O)[O-])cccc1[N+](=O)[O-]`: the melting point was 119 °C. Regarding `COC(=O)c1scc(S(=O)(=O)Cc2ccco2)c1N`, the melting point was 152 to 154 °C. `O=C(C1=NOC2C(=O)N(c3cc(Cl)ccc3Cl)C(=O)C12)c1cccs1` (stereo not drawn) returned a melting point of 221 °C.

With `CC12CCC3C(CCC4CC(OCc5ccccc5)CCC43C)C1CCC2O` (stereo not drawn), the melting point came to 225 °C. On to `O=C1C=C(O)CC(c2ccccc2)C1` (stereo not drawn), for which the melting point was found to be 187 °C. For `COC(=O)CCCC(=O)OC`, the melting point was -37 °C.

As to `CCCCC(O)(Cn1cncn1)c1ccc(Cl)cc1Cl` (stereo not drawn), the melting point stood at 111 °C. The molecule `Cc1nc[nH]c1C=O` yielded a melting point of 165 to 166 °C. As to `COc1ccc(C(=O)CCCCl)c(OC)c1`, the melting point fell in the range of 58 to 60 °C.

Molecule `C=CCc1ccccc1O` had a melting point of -6 °C.

`CCCCCCc1ccc2ccccc2c1` registered a melting point of -3 °C. The molecule `Cc1c(N/N=C2/C(=O)N(c3ccccc3)N=C2C(F)(F)F)c(=O)n(-c2ccccc2)n1C` gave a melting point of 185 °C. Next, `Oc1cccc2c1CCCC2`: 70 °C.

In the case of `COc1cc(N)c(Cl)cc1C(=O)NC1CCN(Cc2ccccc2)CC1`, the melting point was found to be 194 °C. As to `CCOC(=O)CN(C(=O)CCl)c1c(CC)cccc1CC`, the melting point came out at 50 °C. Under `Nc1nc2ccccc2n1Cc1ccc(F)cc1` stands 191 to 193 °C; under `O=C(O)C(=O)CBr`, 79 to 82 °C.

`Nc1nc(-c2ccc(Br)cc2)cc(C(F)(F)F)n1` had a melting point of 216 to 218 °C. `Cc1cc(C)c(C(=O)O)cc1C` yielded a melting point of 152 °C. In the case of `ONc1ccccc1`, the melting point was found to be 83.5 °C. Under `CC(C)C1=C(O)C(=O)C2=C(C1=O)C(O)C(O)C1C(C)(C)CCCC21C` (stereo not drawn) stands 203 to 205 °C. In turn, `Cc1ccc2c(ccc3ccccc32)n1` returned a melting point of 76 °C. Next, `COC(=O)c1ccno1`: 49 °C; `CC(C)(C)OC(=O)N1CCC(C(N)=O)CC1`: 163 to 164 °C.

The molecule `Cc1cc(C(=O)NN)nn1C(C)(C)C` displayed a melting point of 85 to 88 °C.

`O=C(O)Cc1ccc(Cl)cc1Cl` returned a melting point of 129 °C. Under `FC(F)(F)c1cc2ccccc2cn1` stands 31 °C; under `OCc1ccc(F)cc1`, 23 °C. For `O=C(O)Cn1ccnc1`, the melting point was 258 to 260 °C.

`Cn1nc([N+](=O)[O-])c2c(=O)cc[nH]c21` displayed a melting point of 222 to 224 °C. `N#Cc1cccc2ccsc12` displayed a melting point of 67.5 to 72.5 °C. Molecule `Cc1ccc(NC(=O)C(C(F)(F)F)C(F)(F)F)cc1` yielded a melting point of 196 °C. Molecule `C[Si](C)(C)CC(=O)O` displayed a melting point of 41 °C. `O=[N+]([O-])c1cc(O)ccc1Cl`: the melting point was found to be 127 °C. Under `NS(=O)(=O)c1ccc(SCCCCO)s1` stands 48.5 °C; under `O=C1C(Cl)=C(Cl)C(=O)N1c1ccc(F)cc1`, 241 °C; under `O=C(CO)[C@@H](O)[C@H](O)[C@@H](O)CO`, 165 °C. `CC(C)CCSCCC(C)C`: the melting point is -74.6 °C.
